The values that follow come from DBAASP.

Some test systems named below: Bacillus subtilis; Listeria innocua; Escherichia coli; Micrococcus luteus; Staphylococcus aureus; Candida albicans; Pseudomonas aeruginosa; Escherichia coli B; Bacillus subtilis 168; Micrococcus luteus A270.
Holding throughout (assay): ≥ marks a high value that may be exact or a test limit, other limits are often not marked, values filed in µg/mL are converted to µM
The test system of assay [1] is Pseudomonas aeruginosa Ps4.
Assay [2] concerns Staphylococcus aureus ATCC 25923.
For assay [3], the system named is Candida albicans ATCC 2002.
The test system of assay [4] is Escherichia coli ATCC 25922.
The subject of assay [5] is Salmonella enterica subsp. enterica serovar Enteritidis.
Assay [6] concerns Staphylococcus aureus ATCC BAA-1556.
In assay [7] the test system is Staphylococcus aureus ATCC 29213.
The subject of assay [8] is Candida albicans F7-39/IDE99.

Broadly, the MIC is the lowest concentration that inhibits growth of the organism. High values mean a need for much substance, low ones inhibition by little substance.

Values after ≈ are worked out from the molar mass of the structure shown.

For `CC[C@H](C)[C@H](NC(=O)[C@H](CC(N)=O)NC(=O)[C@H](CCCN=C(N)N)NC(=O)[C@H](CCC(N)=O)NC(=O)[C@H](Cc1c[nH]c2ccccc12)NC(=O)[C@H](Cc1ccccc1)NC(=O)[C@@H](N)CCCN=C(N)N)C(=O)N[C@@H](CCCN=C(N)N)C(=O)N[C@@H](CCCCN)C(=O)N[C@H](C(=O)N[C@@H](CCCN=C(N)N)C(=O)N[C@@H](CCCN=C(N)N)C(N)=O)C(C)C` [RFWQRNIRKVRR], the MIC in assay [1] is no less than 146 µM.

Take `CC[C@H](C)[C@H](NC(=O)[C@H](C)NC(=O)[C@H](CCCN=C(N)N)NC(=O)[C@H](Cc1ccc(O)cc1)NC(=O)[C@H](CC(C)C)NC(=O)[C@H](CC(N)=O)NC(=O)[C@H](Cc1ccc(O)cc1)NC(=O)CNC(=O)[C@H](C)NC(=O)[C@@H](NC(=O)[C@@H](NC(=O)[C@@H](NC(=O)[C@H](CCCN=C(N)N)NC(=O)[C@@H](NC(=O)[C@@H](NC(=O)[C@@H](NC(=O)[C@@H]1CCCN1C(=O)[C@H](Cc1c[nH]c2ccccc12)NC(=O)[C@H](Cc1ccccc1)NC(=O)[C@H](CCCN=C(N)N)NC(=O)[C@@H](N)CCCCN)C(C)C)C(C)C)[C@@H](C)CC)[C@@H](C)O)C(C)C)C(C)C)C(=O)N[C@@H](CCCCN)C(=O)N[C@@H](CCCCN)C(=O)N[C@@H](CCCCN)C(=O)O` [KRFWPVVIRTVVAGYNLYRAIKKK]: the minimal inhibitory concentration (MIC) came to 1.21 µM (≈ 3.52 µg/mL) against Bacillus subtilis, 1.21 µM (≈ 3.52 µg/mL) in assay [2], 0.202 µM (≈ 0.586 µg/mL) in assay [3] and 6.45 µM (≈ 18.8 µg/mL) in [4].

In turn, `CC[C@H](C)[C@H](NC(=O)[C@H](CC(N)=O)NC(=O)[C@H](CCCN=C(N)N)NC(=O)[C@H](CCC(N)=O)NC(=O)[C@H](Cc1c[nH]c2ccccc12)NC(=O)[C@H](CCCN=C(N)N)NC(=O)[C@@H](N)CCCN=C(N)N)C(=O)N[C@@H](CCCN=C(N)N)C(=O)N[C@@H](CCCCN)C(=O)N[C@@H](Cc1ccc(O)cc1)C(=O)N[C@@H](CCCN=C(N)N)C(=O)N[C@@H](CCCN=C(N)N)C(N)=O` [RRWQRNIRKYRR] displayed a minimum inhibitory concentration (MIC) in assay [1] of no less than 140 µM.

`CC(C)C[C@H](NC(=O)[C@H](C)NC(=O)[C@H](CC(N)=O)NC(=O)[C@H](C)NC(=O)[C@@H](NC(=O)CNC(=O)[C@H](C)NC(=O)[C@@H](NC(=O)[C@@H](NC(=O)[C@H](CCCCN)NC(=O)[C@H](CCC(N)=O)NC(=O)[C@H](Cc1ccccc1)NC(=O)[C@H](CC(=O)O)NC(=O)[C@H](C)NC(=O)[C@H](CCC(N)=O)NC(=O)[C@H](CC(C)C)NC(=O)[C@@H](NC(=O)[C@@H]1CCCN1C(=O)[C@@H](NC(=O)[C@H](Cc1ccccc1)NC(=O)[C@@H](N)Cc1ccccc1)[C@@H](C)O)C(C)C)C(C)C)C(C)C)C(C)C)C(=O)N[C@@H](C)C(=O)N[C@@H](Cc1cnc[nH]1)C(=O)N[C@@H](CCCN=C(N)N)C(=O)N[C@@H](Cc1ccc(O)cc1)C(=O)N[C@@H](Cc1cnc[nH]1)C(=O)O` [FFTPVLQADFQKVVAGVANALAHRYH]: the MIC in the assay with Listeria innocua was no less than 73 µM; against Escherichia coli it was 73 µM (≈ 212 µg/mL); in the assay with Micrococcus luteus, no less than 85 µM; in assay [5], no less than 73 µM.

Turning to `CC[C@H](C)[C@H](NC(=O)[C@H](C)NC(=O)[C@H](CCCN=C(N)N)NC(=O)[C@H](Cc1ccc(O)cc1)NC(=O)[C@H](CC(C)C)NC(=O)[C@H](CC(N)=O)NC(=O)[C@H](Cc1ccc(O)cc1)NC(=O)CNC(=O)[C@H](C)NC(=O)[C@@H](NC(=O)[C@@H](NC(=O)[C@@H](NC(=O)[C@H](CCCN=C(N)N)NC(=O)[C@@H](NC(=O)[C@@H](NC(=O)[C@@H](NC(=O)[C@@H]1CCCN1C(=O)[C@@H](N)Cc1c[nH]c2ccccc12)C(C)C)C(C)C)[C@@H](C)CC)[C@@H](C)O)C(C)C)C(C)C)C(=O)N[C@@H](CCCCN)C(=O)N[C@@H](CCCCN)C(=O)N[C@@H](CCCCN)C(=O)O` [WPVVIRTVVAGYNLYRAIKKK], the MIC against Bacillus subtilis is 15.2 µM (≈ 37.5 µg/mL); in assay [2] it was 5.68 µM (≈ 14.1 µg/mL); in assay [3] it was 0.947 µM (≈ 2.34 µg/mL); in assay [4], 15.2 µM (≈ 37.5 µg/mL).

The compound `CC(C)C[C@H](NC(=O)[C@H](Cc1c[nH]c2ccccc12)NC(=O)[C@H](CCCN=C(N)N)NC(=O)[C@H](CC(C)C)NC(=O)[C@H](Cc1c[nH]c2ccccc12)NC(=O)[C@H](Cc1c[nH]c2ccccc12)NC(=O)[C@H](CC(C)C)NC(=O)[C@@H](N)Cc1c[nH]c2ccccc12)C(N)=O` [WLWWLRWL] showed an MIC in assay [6] of 6.25 µM (≈ 7.86 µg/mL).

With `CC(C)C[C@H](NC(=O)[C@H](CC(C)C)NC(=O)[C@H](CC(C)C)NC(=O)[C@H](CC(C)C)NC(=O)[C@H](CCCCN)NC(=O)[C@H](CC(C)C)NC(=O)[C@H](CC(C)C)NC(=O)[C@H](CC(C)C)NC(=O)[C@@H](N)CCCCN)C(N)=O` [KLLLKLLLL], the minimal inhibitory concentration (MIC) in [6] was no less than 100 µM.

Regarding `CC(C)C[C@H](NC(=O)[C@H](Cc1c[nH]c2ccccc12)NC(=O)[C@H](CCCN=C(N)N)NC(=O)[C@H](CC(C)C)NC(=O)[C@H](Cc1c[nH]c2ccccc12)NC(=O)[C@H](Cc1c[nH]c2ccccc12)NC(=O)[C@@H](N)CC(C)C)C(N)=O` [LWWLRWL], the MIC in assay [6] was 12.5 µM (≈ 13.4 µg/mL).

`CC(C)C[C@@H]1NC(=O)CNC(=O)[C@H](CO)NC(=O)[C@H](CC(C)C)NC(=O)CNC(=O)[C@@H](NC(=O)[C@H](CC(C)C)NC(=O)[C@@H](NC(=O)[C@H](CCCCN)NC(=O)[C@H](CCCCN)NC(=O)CNC(=O)[C@@H](NC(=O)CNC(=O)[C@H](CC(C)C)NC(=O)[C@@H](NC(=O)CNC(=O)[C@H](CO)NC(=O)[C@H](CC(C)C)NC(=O)[C@H](CC(C)C)NC(=O)CN)C(C)C)C(C)C)C(C)C)CSSC[C@@H](C(=O)O)NC1=O` [GLLSGVLGVGKKVLCGLSGLC]: the MIC in [7] was 11.5 µM (≈ 22.6 µg/mL); against Bacillus subtilis, 9.5 µM (≈ 18.7 µg/mL); against Escherichia coli, 2.37 µM (≈ 4.68 µg/mL); in the assay with Staphylococcus aureus it was 4.75 µM (≈ 9.36 µg/mL); against Candida albicans it was 2.37 µM (≈ 4.68 µg/mL); in [5] it was no less than 64.9 µM. Moreover, the minimal inhibitory concentration (MIC) in assay [4] came out at 5.73 µM (≈ 11.3 µg/mL).

On to `CC[C@H](C)[C@H](NC(=O)[C@H](CCCCN)NC(=O)[C@H](CCCCN)NC(=O)[C@H](Cc1c[nH]c2ccccc12)NC(=O)[C@H](CC(N)=O)NC(=O)[C@@H](N)C(C)C)C(=O)N[C@@H](CC(C)C)C(=O)NCC(=O)N[C@@H](CCCCN)C(=O)N[C@H](C(=O)N[C@H](C(=O)N[C@@H](CCCCN)C(=O)N[C@H](C(=O)N[C@@H](C)C(=O)N[C@@H](CCCCN)C(N)=O)C(C)C)[C@@H](C)CC)[C@@H](C)CC` [VNWKKILGKIIKVAK], for which the MIC was 14.4 µM (≈ 25 µg/mL) in the assay on Pseudomonas aeruginosa; 10 µM (≈ 17.4 µg/mL) in assay [8]; 9 µM (≈ 15.6 µg/mL) in the assay on Staphylococcus aureus; 1.4 µM (≈ 2.43 µg/mL) against Escherichia coli B; 0.7 µM (≈ 1.22 µg/mL) against Bacillus subtilis 168.

Compound `CC(C)C[C@H](NC(=O)[C@H](CC(C)C)NC(=O)[C@H](Cc1c[nH]c2ccccc12)NC(=O)[C@H](CCCCN)NC(=O)[C@H](CC(C)C)NC(=O)[C@H](CC(C)C)NC(=O)[C@H](CCCCN)NC(=O)[C@@H](N)CCCCN)C(=O)N[C@@H](CCCCN)C(N)=O` [KKLLKWLLK] showed an MIC in assay [6] of no less than 100 µM.

For `CC(C)C[C@H](NC(=O)[C@@H](N)Cc1ccccc1)C(=O)N[C@@H](CO)C(=O)N[C@@H](Cc1ccccc1)C(=O)N1CCC[C@H]1C(=O)N[C@H](C(=O)N[C@H](C(=O)N[C@@H](CCCCN)C(=O)N[C@H](C(=O)N[C@@H](Cc1ccc(O)cc1)C(=O)N[C@@H](Cc1ccccc1)C(=O)N1CCC[C@H]1C(=O)N[C@@H](Cc1cnc[nH]1)C(=O)O)[C@@H](C)O)[C@@H](C)O)[C@@H](C)O` [FLSFPTTKTYFPH], the minimum inhibitory concentration (MIC) in the assay with Listeria innocua worked out at 1 µM (≈ 1.59 µg/mL); in the assay on Escherichia coli, 9 µM (≈ 14.3 µg/mL); in assay [5], 5 µM (≈ 7.93 µg/mL); in the assay with Micrococcus luteus A270, 5 µM (≈ 7.93 µg/mL).

Turning to `CC[C@H](C)[C@H](NC(=O)[C@H](Cc1cnc[nH]1)NC(=O)[C@H](CCCCN)NC(=O)[C@H](CC(C)C)NC(=O)[C@H](CC(C)C)NC(=O)[C@@H](NC(=O)[C@H](CCSC)NC(=O)[C@H](Cc1c[nH]c2ccccc12)NC(=O)[C@H](CCCCN)NC(=O)CN)[C@@H](C)O)C(=O)N[C@@H](CC(C)C)C(=O)N[C@@H](CCCCN)C(N)=O` [GKWMTLLKHILK], the MIC stood at 38.3 µM (≈ 56.2 µg/mL) against Pseudomonas aeruginosa; 7 µM (≈ 10.3 µg/mL) in [8]; 5.3 µM (≈ 7.77 µg/mL) against Staphylococcus aureus; 2.7 µM (≈ 3.96 µg/mL) against Escherichia coli B; 1.3 µM (≈ 1.91 µg/mL) in the assay on Bacillus subtilis 168.

In [6], `CC[C@H](C)[C@H](NC(=O)[C@H](Cc1c[nH]c2ccccc12)NC(=O)[C@H](CCCN=C(N)N)NC(=O)[C@H](CCCN=C(N)N)NC(=O)[C@H](Cc1c[nH]c2ccccc12)NC(=O)[C@@H](N)CCCCN)C(=O)N[C@@H](CCCN=C(N)N)C(=O)N[C@@H](Cc1c[nH]c2ccccc12)C(N)=O` [KWRRWIRW] showed an MIC of 12.5 µM (≈ 16.1 µg/mL). That is a double-digit micromolar value.

Compound `CC(C)C[C@H](NC(=O)[C@H](CC(C)C)NC(=O)[C@H](CCCCN)NC(=O)[C@H](CC(C)C)NC(=O)[C@H](CC(C)C)NC(=O)[C@H](CC(C)C)NC(=O)[C@H](CC(C)C)NC(=O)[C@H](CC(C)C)NC(=O)[C@@H](N)CC(C)C)C(N)=O` [LLLLLLKLL] displayed an MIC in assay [6] of no less than 100 µM.
